The results in this text go back to patent US20250170101A1, “MONOACYLGLYCEROL LIPASE INHIBITORS AND USE THEREOF FOR THE TREATMENT AND MANAGEMENT OF PAIN AND RELATED CONDITIONS” (Psy Therapeutics, Inc., priority 2021, published 2025).

In one test the target is T1, human MAGL (Homo sapiens, UniProt Q99685).
T1 construct: recombinant MAGL enzyme (aa 2-303 RBC, internal preparation)
T1 sequence (Q99685 2-303): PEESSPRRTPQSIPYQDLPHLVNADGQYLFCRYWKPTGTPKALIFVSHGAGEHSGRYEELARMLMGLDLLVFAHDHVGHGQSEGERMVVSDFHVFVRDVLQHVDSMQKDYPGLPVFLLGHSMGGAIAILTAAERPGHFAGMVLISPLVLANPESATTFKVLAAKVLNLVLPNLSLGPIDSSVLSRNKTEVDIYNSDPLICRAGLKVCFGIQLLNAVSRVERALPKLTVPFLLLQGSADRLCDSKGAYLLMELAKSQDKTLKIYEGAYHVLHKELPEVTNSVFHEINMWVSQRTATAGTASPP
Briefly: MAGL inhibition potency (IC50) with 4NPA substrate, Example 20, methods of Table C. In kind it is biochemical.
Conditions: not given
From the text: Cayman's Monoacylglycerol Lipase Inhibitor Screening Assay provides a method for screening human MAGL inhibitors. MAGL hydrolyzes 4-nitrophenylacetate resulting in a yellow product, 4-nitrophenol, with an absorbance of 405-412 nm. The monoacylglycerol lipase inhibitor screening assay kit from Cayman Chemical was used to measure the MAGL potency for the compounds in Table 4 and Table 5. Cayman's Monoacylglycerol Lipase Inhibitor Screening Assay provides a method for screening human MAGL inhibitors. MAGL hydrolyzes 4-nitrophenylacetate resulting in a yellow product, 4-nitrophenol, with an absorbance of 405-412 nm. MAGL Inhibition was measured by the following assay. Monoacylglycerol Lipase (MAGL) inhibition was measured using recombinant MAGL enzyme (aa 2-303 RBC, internal preparation) and the substrate 4-Nitrophenyl acetate (4NPA) (Sigma-Aldrich, N8130). Hydrolysis of the substrate in the presence of the enzyme was measured by absorbance at 405 nm. 10 μL of assay buffer (10 mM Tris pH 7.5, 1 mM EDTA, 0.9% DMSO) was added to a black 384-well non-binding plate with clear bottom (Greiner, 781906) for each reaction. […] DMSO control wells were included for reference. A 10.8 nM (1.8×) MAGL mix in assay buffer was prepared, with 25 μL added to each reaction well, for a final assay concentration of 6 nM. No enzyme wells received 25 μL of buffer. Plate was incubated at room temperature for 30 minutes. 35 mM solution of 4NPA in methanol was prepared daily. A 4.5×4NPA substrate solution was prepared in assay buffer and 10 μL was added to each reaction well, for a final assay concentration of 0.25 mM. Plate was spun for 1 minute at 1000 rpm before measuring absorbance using a CLARIOstar plate reader (BMG Labtech). A kinetic reading at 405 nm was done every minute for 30 minutes. Data was analyzed using the linear slope of the reaction progress curve and the average of the no-enzyme wells (background) was subtracted from the data. The background-subtracted slope data was converted to % activity using the average of wells with enzyme and DMSO vehicle. IC50s were calculated using GraphPad software (Sigmoidal dose response, variable slope equation). […] Table 6 is a table of potency measurements of MAGL inhibition measured for other compounds using the Potency Assay of Example 20 above, with the following modifications described in Table C. [table]
Regarding `Cc1cc(C2CC3(C2)CN(Cc2cc(O)ccc2F)C3)n(-c2ccccc2C)n1` [Compound 150, 4-fluoro-3-((6-(3-methyl-1-(o-tolyl)-1H-pyrazol-5-yl)-2-azaspiro [3.3]heptan-2-yl)methyl)phenol], the IC50 was greater than 10 µM.

Still in this test, the particulars now being: Method 2: MAGL (10 nM) Cayman Chemical Enzyme.
`COc1cc(F)ccc1CN1CC2(CC(c3cc(C)nn3-c3ccccc3C)C2)C1` [Compound 149] displayed an IC50 greater than 10 µM.

Consider `COC(c1cccn1C)N1CC2(CC(c3cc(C)nn3-c3ccccc3C)C2)C1` (stereo not drawn) [Compound 181], for which the 50% inhibitory concentration (IC50) is greater than 10 µM.

`COC(c1ccn(C)c1)N1CC2(CC(c3cc(C)nn3-c3ccccc3C)C2)C1` (stereo not drawn) [Compound 182] displayed a concentration for half-maximal inhibition (IC50) greater than 10 µM.

Still in this test, the particulars now being: Method 4: MAGL (15 nM) Cayman Chemical Enzyme.
In the case of `CCOc1cc(F)ccc1C(=O)N1CC2(CC(C(=O)N(C)c3cccnc3C)C2)C1` [Compound 198], the half-inhibitory concentration (IC50) was greater than 10 µM.

Staying with this test, now noted: Method 6: Enzyme Conc 6, Reaction Biology (6 nM).
Compound `Cc1cnn(C2CC3(C2)CN(C(=O)c2cc(O)ccc2F)C3)c1-c1ccccc1Cl` [Compound 404] yielded an IC50 greater than 10 µM.

Consider `Cc1ccccc1-c1ccnn1C1CC2(C1)CN(C(=O)c1cc(O)ccc1F)C2` [Compound 405], for which the IC50 is greater than 10 µM.

Turning to `Cc1cc(-c2ccccc2C)n(C2CC3(C2)CN(C(=O)c2cc(O)ccc2F)C3)n1` [Compound 406], the half-maximal inhibitory concentration (IC50) is greater than 10 µM.

On to `Cc1cn(C2CC3(C2)CN(C(=O)c2cc(O)ccc2F)C3)nc1-c1ccccc1Cl` [Compound 416], for which the half-maximal inhibitory concentration (IC50) was greater than 10 µM.

The compound `Cc1ccccc1-c1ccn(C2CC3(C2)CN(C(=O)c2cc(O)ccc2F)C3)n1` [Compound 441] returned an IC50 greater than 10 µM.

`Cc1ccccc1-c1cc(C)n(C2CC3(C2)CN(C(=O)c2cc(O)ccc2F)C3)n1` [Compound 442] yielded a 50% inhibitory concentration (IC50) greater than 10 µM.

The test is the same for the next values; noted with them: Method 12: Enzyme Conc 15, Reaction Biology (15 nM).
With `Cc1cnn(C2CC3(C2)CN(C(=O)c2cc(O)ccc2C(F)(F)F)C3)c1-c1ccccc1F` [Compound 494], the IC50 was greater than 10 µM.

`Cc1cn(C2CC3(C2)CN(C(=O)c2cc(O)ccc2C(F)(F)F)C3)nc1-c1ccccc1F` [Compound 495] gave an IC50 greater than 10 µM.

`O=C(c1c(F)cccc1OC1CC1)N1CC2(CC(n3ncc(C(F)(F)F)c3-c3ccccc3F)C2)C1` [Compound 521] gave a half-inhibitory concentration (IC50) greater than 10 µM.

The test is the same for the next values; noted with them: Method 14: Enzyme Conc "0", Source "0"; Reaction Biology prep, 6 nM.
`Cc1cc(C2CC3(C2)CN(C(=O)c2cc4c(cc2F)CCO4)C3)n(-c2ccccc2C)n1` [Compound 368] gave an IC50 greater than 10 µM.

`O=C(c1cc(O)ccc1F)N1CC2(CC(C(=O)N3CCOCC3)C2)C1` [Compound 384]: the IC50 is greater than 10 µM.

For the compound `O=C(c1cc(O)ccc1F)N1CC2(CC(C(=O)N3CCCC3)C2)C1` [Compound 388], the 50% inhibitory concentration (IC50) was greater than 10 µM.

Take `O=C(c1cc(O)ccc1F)N1CC2(CC(C(=O)N3CCC4(COC4)C3)C2)C1` [Compound 391]: the half-maximal inhibitory concentration (IC50) was greater than 10 µM.

As for `O=C(NCC1COC1)C1CC2(C1)CN(C(=O)c1cc(O)ccc1F)C2` [Compound 395], the IC50 was greater than 10 µM.

The compound `Cc1cc(C2CC3(C2)CN(C(=O)c2ccc4c(c2)OCC4)C3)n(-c2ccccc2C)n1` [Compound 402] yielded an IC50 greater than 10 µM.

`Cc1cc(C2CC3(C2)CN(C(=O)c2cccc4c2CCO4)C3)n(-c2ccccc2C)n1` [Compound 403]: the concentration for half-maximal inhibition (IC50) is greater than 10 µM.

A further test deals with T2, human recombinant FAAH (Homo sapiens, UniProt O00519).
T2 construct: purchased Cayman kit Item No. 10005196; FAAH enzyme 700302
T2 sequence (O00519 1-579): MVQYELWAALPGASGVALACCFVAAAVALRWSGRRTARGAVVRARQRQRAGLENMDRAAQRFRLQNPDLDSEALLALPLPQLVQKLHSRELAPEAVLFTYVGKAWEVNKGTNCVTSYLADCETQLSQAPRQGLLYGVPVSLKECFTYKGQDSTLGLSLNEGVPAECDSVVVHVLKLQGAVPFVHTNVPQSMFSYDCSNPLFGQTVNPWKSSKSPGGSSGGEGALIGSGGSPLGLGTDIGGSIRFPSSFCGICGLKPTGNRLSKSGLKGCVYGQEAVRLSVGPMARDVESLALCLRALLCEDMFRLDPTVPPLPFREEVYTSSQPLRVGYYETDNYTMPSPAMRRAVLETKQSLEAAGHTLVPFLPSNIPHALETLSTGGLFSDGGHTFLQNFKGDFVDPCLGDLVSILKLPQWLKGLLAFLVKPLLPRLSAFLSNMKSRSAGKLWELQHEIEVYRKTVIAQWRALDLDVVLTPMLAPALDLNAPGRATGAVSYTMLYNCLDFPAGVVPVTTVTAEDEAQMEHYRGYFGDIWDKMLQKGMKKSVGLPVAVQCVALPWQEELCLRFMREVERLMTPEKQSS
Description: FAAH counter screen (Cayman FAAH Inhibitor Screening Assay Kit), Example 21. The class given is biochemical. Particulars: Method A: starting concentration of 100 μM. On the procedure: Comparative compound potency at FAAH can be obtained with the following assay.
MAGL inhibitor compounds were also counter-screened for FAAH inhibition potency using the following assay. Assessment of FAAH inhibition was performed using Fatty Acid Amide Hydrolase Inhibitor Screening Assay Kit (Cayman Item No. 10005196) following manufacture's instruction with some modifications. The kit utilizes human recombinant FAAH and the fluorescent substrate, AMC Arachidonoyl amide (AAMCA). 5 μL of assay buffer (125 mM Tris, pH 9.0, 1 mM EDTA, i.e. ethylenediaminetetraacetic acid) was added to a 384-well black plate (Corning, 3573). Test compounds and control inhibitor JZL-195 (Cayman Chemical, 13668) were tested in 10-concentration IC50 mode with 3-fold serial dilution at a starting concentration of 100 μM and 10 μM, respectively. 300 nL or 30 nL of test compounds were delivered into a 384-well black plate (Corning, 3573) using a Labcyte Echo, followed by addition of 15 μL of FAAH enzyme (Cayman, 700302) in assay buffer. After a 5-minute pre-incubation at room temperature, 10 μL of AAMCA was added in assay buffer to start the reaction. Final concentration of FAAH enzyme is not specified and AAMCA substrate was used at the 20 uM. After these dilutions, the final concentration of the test compounds ranged from 100 μM to 5.08 nM or 10 μM down to 0.508 nM. The reaction was allowed to progress for 60 minutes, while the plate was read on an Envision plate reader at an Ex/Em of 350/460 nm with readings every minute. The data was analyzed in Microsoft Excel, using the slope between 30 and 59 minutes. The average of the no-enzyme wells (background) was subtracted from the data. The background-subtracted slope data was converted to % activity using the average of wells with enzyme and DMSO vehicle. IC50 values were calculated using GraphPad software (Sigmoidal dose response, variable slope equation).
Compounds listed in Table D2 were tested in the FAAH Counterscreen of Example 21
For `Cc1ccccc1-n1nc(C2CC3(C2)CN(C(=O)c2cc(O)ccc2F)C3)cc1C` [Compound 117], the IC50 was greater than 10 µM.

Regarding `Cc1cc(C2CC3(C2)CN(C(=O)c2ccccc2F)C3)n(-c2ccccc2C)n1` [Compound 122, (2-fluorophenyl)(6-(3-methyl-1-(o-tolyl)-1H-pyrazol-5-yl)-2-azaspiro[3.3]heptan-2-yl)methanone], the IC50 is greater than 10 µM.

Take `COc1ccc(F)c(C(=O)N2CC3(CC(c4cc(C)nn4-c4ccccc4C)C3)C2)c1` [Compound 123, (2-fluoro-5-methoxyphenyl)(6-(3-methyl-1-(o-tolyl)-1H-pyrazol-5-y1)-2-azaspiro[3.3]heptan-2-yl)methanone]: the concentration for half-maximal inhibition (IC50) was greater than 10 µM.

Regarding `Cc1cc(C2CC3(C2)CN(C(=O)c2cccc(O)c2)C3)n(-c2ccccc2C)n1` [Compound 125, (3-hydroxyphenyl)(6-(3-methyl-1-(o-tolyl)-1H-pyrazol-5-y1)-2-azaspiro[3.3]heptan-2-yl)methanone], the concentration for half-maximal inhibition (IC50) is greater than 10 µM.

The target of another test is T3, MAGL enzyme (Homo sapiens, UniProt Q99685).
T3 sequence (Q99685 1-303): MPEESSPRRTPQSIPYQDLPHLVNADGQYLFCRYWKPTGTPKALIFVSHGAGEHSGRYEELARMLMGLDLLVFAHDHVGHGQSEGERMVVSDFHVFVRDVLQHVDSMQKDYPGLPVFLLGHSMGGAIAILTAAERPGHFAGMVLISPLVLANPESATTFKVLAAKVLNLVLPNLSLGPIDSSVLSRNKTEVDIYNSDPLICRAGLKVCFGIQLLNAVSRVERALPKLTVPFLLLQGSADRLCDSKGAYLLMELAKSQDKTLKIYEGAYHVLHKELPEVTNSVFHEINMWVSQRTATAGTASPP
Description: MAGL reversible inhibition assay (washout), Example 22. The class given is biochemical. Further details: % MAGL activity returning after washout: concentration or dose not given beside the values. Particulars: pre-washout compound concentration 1 μM. On the procedure:
The reversible mechanism of MAGL inhibition of a test compound of Formula (I) can be determined. Flag-tagged MAGL enzyme will be immobilized on anti-Flag beads. Immobilized enzyme will be incubated+/−inhibitor at a dose that produces complete inhibition. Colorimetric substrate (4-NPA) will be added and the reaction monitored on a plate reader for 30 minutes to verify complete inhibition. Immobilized enzyme will then be washed thoroughly to remove the inhibitor, and fresh substrate will be added. The reaction will be monitored for an additional 30 minutes; returning enzymatic activity will indicate reversibility of inhibition. […]
For some test compounds, % activity returning after washout may be less than 100%/if complete compound unbinding takes longer than 30 minutes.
For `Cc1cnn(C2CC3(C2)CN(C(=O)c2cc(O)ccc2F)C3)c1-c1cc(F)ccc1Cl` (single isomer, unassigned) [Compound 519, {6-[5-(2-chloro-5-fluorophenyl)-4-methyl-1-pyrazolyl]-2-aza-2-spiro[3.3]heptyl}(2-fluoro-5-hydroxyphenyl)methanone], the “degree to which MAGL enzymatic activity returned following washout of test compounds” value is 155.

Staying with this test, now noted: relative to control (no inhibitor before washout), immediately following 30 minute washout.
For `Cc1cnn(C2CC3(C2)CN(C(=O)c2cc(O)ccc2F)C3)c1-c1cc(F)ccc1Cl` (single isomer, unassigned) [Compound 519, {6-[5-(2-chloro-5-fluorophenyl)-4-methyl-1-pyrazolyl]-2-aza-2-spiro[3.3]heptyl}(2-fluoro-5-hydroxyphenyl)methanone], the “% MAGL activity returning after washout” value is listed as greater than 50%.
